What all share (test): MIC by agar dilution method, minimal agar medium
Common to all, as to format: cell-based
For orientation: In agar dilution the substance is mixed into plates at graded concentrations.

One assay deals with E. coli 257. Particulars: Escherichia coli, over-night incubation at 36° C., read-out: MIC (minimum inhibitory concentration). As to the method: (§1) To avoid possible antimetabolite reversal, a minimal agar medium^2 was employed. Inoculum was grown over-night at 36° C. in minimal broth medium and diluted a hundred-fold before use. Agar plates containing a serial dilution of the compounds of formula Ia were inoculated using a Steer's replicator. Approximately 3 μL was applied per spot. MICs were recorded after over-night incubation at 36° C.
(§2) ^1 Barry, A. L., Procedure for Testing Antimicrobial Agents in Agar Media: Theoretical Considerations, p. 1-26. In Victor Lorian (Ed.), Antibiotics in Laboratory Medicine, 2nd ed. The Williams & Wilkins Co., Baltimore.
(§3) ^2 Davis, B. D.; Mingioli, E. S. J. BACTERIOL. 1950, 60, 17-28.
(§4) The minimum inhibitory concentrations of 1-thiaguanosine, the compound of formula Ia, against various bacteria were as follows: […]

The subject of a further assay is E. coli 2721B. Conditions: Escherichia coli, over-night incubation at 36° C., read-out: MIC (minimum inhibitory concentration). How it is done: as §1, §2, §3, §4
Another assay has as its system E. coli 94. Particulars: Escherichia coli, over-night incubation at 36° C., read-out: MIC (minimum inhibitory concentration). How it is done:
as §1, §2, §3, §4

For another assay, the system named is E. coli ATCC 25922. Particulars: Escherichia coli, ATCC25922, over-night incubation at 36° C., read-out: MIC (minimum inhibitory concentration). How it is done:
as §1, §2, §3, §4

Another assay has as its system E. coli B. Conditions: Escherichia coli, over-night incubation at 36° C., read-out: MIC (minimum inhibitory concentration). How it is done:
as §1, §2, §3, §4

The subject of another assay is Prov. rettgeri ATTC 9250. Conditions: Providencia rettgeri, ATTC9250, over-night incubation at 36° C., read-out: MIC (minimum inhibitory concentration). How it is done: as §1, §2, §3, §4
Assay [1] has as its system S. typhimurium ATTC 13311. Conditions: Salmonella enterica, over-night incubation at 36° C., read-out: MIC (minimum inhibitory concentration). How it is done: as §1, §2, §3, §4
Another assay relates to S. typhimurium LT-2. Particulars: Salmonella enterica, over-night incubation at 36° C., read-out: MIC (minimum inhibitory concentration). How it is done:
as §1, §2, §3, §4

The structures appear in SMILES notation. Converted amounts (≈) assume the structure as drawn.

Regarding `Nc1nc2c(ncn2[C@@H]2O[C@H](CO)[C@@H](O)[C@H]2O)c(=O)s1` [1-thiaguanosine, 5-amino-3-(β-D-ribofuranosyl)imidazo[4,5-d][1,3]thiazin-7(3H)-one], the MIC in the assay on E. coli 257 came out at 16 µg/mL (≈ 53.3 µM); with E. coli 2721B, 128 µg/mL (≈ 426 µM); in the assay with E. coli 94, 32 µg/mL (≈ 107 µM); with E. coli ATCC 25922, 128 µg/mL (≈ 426 µM); in the assay with E. coli B it was 128 µg/mL (≈ 426 µM); in the assay with Prov. rettgeri ATTC 9250 it was 4 µg/mL (≈ 13.3 µM). The MIC (in assay [1]; with S. typhimurium LT-2) was 8 µg/mL (≈ 26.6 µM) throughout.

(Values after patent US5243042A, “1-thiaguanosine and process for preparing oxanosine and 1-thiaguanosine” (Hoffmann-La Roche Inc., priority 1990, dated 1993).)
